Measurements reported in patent US10815264B2, “Nucleotides for the treatment of cancer” (IDENIX PHARMACEUTICALS LLC, priority 2015, dated 2020).
Where two headings read alike, the source gives them in different places.

Tests used:
[1] = system: live leukemic cells of AML patient samples (bone marrow or peripheral blood); test: Ex-vivo effect on AML patient samples, depletion of live leukemic cells by flow cytometry; format: cell-based, human; details: plates incubated for 48 hours
Procedure: Patient samples were obtained from a non-interventional and prospective study. The study included samples from adult patients over 18 years of age who were diagnosed with Acute Myeloid Leukemia (AML).
In one embodiment, the method of data acquisition was performed as follows: on day 1 bone marrow (BM) or peripheral blood (PB) patient sample was received. A small part was separated from the rest of the sample for validation, while the majority of the sample was diluted with culture media and plated into 96-well plates previously prepared with the desired compounds and compound combinations, e.g., a compound or compound combination described herein. The number of live leukemic cells seeded in each well was fixed between 8000 and 32000, depending on the percentage of leukemic cells for each sample. […] Antibodies were added to identify leukemic cells using a gating strategy based on FSC/SSC and expression or lack of expression of different surface markers. The monoclonal antibodies selection was performed to optimize the identification of leukemic cell in each sample.
In one embodiment, non-limiting examples of biomarkers such as the biomarkers CD34, CD45, CD117, and HLADR known as “backbone markers” for AML (van Dongen, J. J. and A. Orfao, EuroFlow: Resetting leukemia and lymphoma immunophenotyping. Basis for companion diagnostics and personalized medicine, Leukemia, 2012, 26, 1899-907) were included in the combination.
In one embodiment, antibody combinations such as CD117/CD45, CD34/CD45, and HLADR/CD45 were used. Live leukemic cells were identified by their light scatter properties (FSC^int/hi/SSC^int) in the absence of Annexin-V-FITC staining. FSC/SSC selection was performed to exclude debris. The average percentage of cell viability upon receipt of the sample was 80% and samples were only processed if the viability was greater than 50%.
In one embodiment, sample validation was performed as follows: BM and PB samples were extracted under sterile conditions and received in the laboratory within 24 hours of extraction. Initial analysis evaluated the number of pathological cells and their viability. Different volumes of sample (1 μL, 3 μL, 5 μL and 7 μL) were aliquoted in duplicate into a 96-well plate. To lyse red blood cells, 180 μL of ammonium chloride lysis solution was added to each well (2 g KHCO3, 16.58 g NH4Cl, 0.074 g Na2EDTA.2H2O, H2O to 1 L). Following a 10 min incubation period at 4° C., plate was centrifuged for 5 min at 1200 rpm and the supernatant removed. The lysis step was performed twice. To analyze, 20 μL of a combination of Annexin V-FITC (Immunostep, Salamanca, Spain), binding buffer (BB, 2.4 g HEPES, 8.19 g NaCl, 0.37 g Cl2Ca, H2O to 1 L), and the following monoclonal antibodies (mAb) were added to each well: CD117 (clone 104D2)-PE (Becton Dickinson, San Jose, Calif., US), CD34 (clone 581)-PerCP (BioLegend, San Diego, Calif., US), HLADR (clone L243)-PB (BioLegend) and CD45 (HI30)-PO (Life Technologies, Carlsbad, Calif., US) (van Dongen, J. J., et al., EuroFlow antibody panels for standardized n-dimensional flow cytometric immunophenotyping of normal, reactive and malignant leukocytes, Leukemia, 2012, 26, 1908-75). After 15 min of incubation at room temperature in the dark, a wash step was performed using binding buffer solution. The pellet was resuspended in 30 μL BB for analysis in Vivia's ExviTech© platform. Cell count and viability upon arrival were computed and the optimal volume of sample to use per well was determined.
In one embodiment, the assay was performed according to following method: the whole sample was diluted with RPMI 1640, supplemented with 20% (v/v) FBS (Thermo Scientific, Waltham, Mass., US), 2% HEPES, 1% antibiotic (Zell Shield, Labclinics, Barcelona, Spain) and 1% L-glutamine 200 mM (Lonza, Hopkinton, Mass., US) to a final volume of 60 μL per well. […]

[2] = system: HL-60; test: In vitro inhibition, CellTiter-Glo (CTG) assay, 72 hr exposure; format: cell-based
Procedure: (§1) Cells were grown in RPMI-1640 supplemented with L-Glutamine and 10% FBS of the following cell lines:
(§2) CCRF-CEM; CCRF-CEM-cytarabine resistant; HL-60; K562; CFPAC-1; MiaPACA-2; BxPC-3; PANC-1; HepG2; MDA-MB-231; HCT-116; A498; and NCI-H69
(§3) 18, 96 well plates of each cell line were seeded with the optimized number of cells per well in a total volume of 50 μL per well. The plates were left overnight. Plate wells were seeded with 100 μL media for media control. The following day, cells were exposed to test compounds as described below. At the same time as drug exposure, a CTG assay was conducted on the 18th plate for the 0 hr count.
(§4) The compounds were added to cells and medium already on the plate to give desired final concentrations. 50 μL media were added to cell control wells, and 50 μL of mix added to vehicle control wells. 10 μM Doxorubicin was added to appropriate wells. Cells exposed to test compound were incubated at 37° C. for 72 hr followed by a CTG assay.
(§5) At the end of the 72 hr exposure period, plates were removed for a CellTiter-Glo (CTG) assay from a 37° C., 5% CO2 incubator and placed on the bench at room temperature for 30 mins. 100 μL of CellTiter-Glo reagent was added and mixed for 2 mins, followed by a further 10 min incubation at room temperature. Luminescence was recorded using Synergy 4.0.

[3] = system: CCRF-CEM-cytarabine resistant; test: as above; format: cell-based
Procedure: as §1, §2, §3, §4, §5

[4] = system: CFPAC-1; test: as above; format: cell-based
Procedure: as §1, §2, §3, §4, §5

[5] = system: BxPC-3; test: as above; format: cell-based
Procedure: as §1, §2, §3, §4, §5

[6] = system: NCI-H69; test: as above; format: cell-based
Procedure: as §1, §2, §3, §4, §5

[7] = system: A498; test: as above; format: cell-based
Procedure: as §1, §2, §3, §4, §5

[8] = system: CCRF-CEM; test: as above; format: cell-based
Procedure: as §1, §2, §3, §4, §5

[9] = system: MiaPACA-2; test: as above; format: cell-based
Procedure: as §1, §2, §3, §4, §5

[10] = system: HCT-116; test: as above; format: cell-based
Procedure: as §1, §2, §3, §4, §5

[11] = system: MDA-MB-231; test: as above; format: cell-based; details: MDA-MB-231, 72 hr
Procedure: as §1, §2, §3, §4, §5

[12] = system: K562; test: as above; format: cell-based; details: K562, 72 hr
Procedure: as §1, §2, §3, §4, §5

[13] = system: HepG2; test: as above; format: cell-based
Procedure: as §1, §2, §3, §4, §5

[14] = system: PANC-1; test: as above; format: cell-based; details: PANC-1, 72 hr
Procedure: as §1, §2, §3, §4, §5

[15] = Homo sapiens, MIA PaCa-2, MiaPACA-2, 72 hr

IC50 ([2]; Homo sapiens, HL-60, 72 h) [µM] | IC50 [3] [µM] | IC50 ([5]; Homo sapiens, BXPC-3, 72 h) [µM] | IC50 ([6]; Homo sapiens, NCI-H69, 72 h) [µM] | IC50 ([8]; Homo sapiens, 72 h) [µM] | IC50 [9, 15] [µM] | IC50 ([10]; Homo sapiens, HCT-116, 72 h) [µM] | IC50 ([11]; Homo sapiens) [µM] | IC50 ([12]; Homo sapiens) [µM] | IC50 ([14]; Homo sapiens) [µM] | EC50 [1] [µM] | Structure (SMILES) | IC50 ([4]; Homo sapiens, CFPAC-1, 72 h) [µM] | IC50 ([7]; Homo sapiens, A498, 72 h) [µM] | other results
 |  |  |  |  |  |  |  |  |  |  | CC(=O)OC[C@H](C)NP1(=O)OC[C@H]2S[C@@H](n3ccc(N)nc3=O)[C@@H](O)C2O1 (stereo partly drawn) |  |  | EC50 ([1]; Homo sapiens, 48 h): ≥ 20 µM; Emax ([1]; Homo sapiens, 48 h): > 20%
1 to 10 | 10 to 100 | 10 to 100 | 10 to 100 | < 1 | 10 to 100 | 10 to 100 | 10 to 100 | 10 to 100 | 10 to 100 |  | CCOC(=O)COP(=O)(N[C@@H](CC(C)C)C(=O)OCC)OC[C@H]1S[C@@H](n2ccc(N)nc2=O)[C@@H](O)[C@@H]1O (single isomer, unassigned) [Compound 102b (diastereoisomer 1)] | 10 to 100 | 10 to 100 | IC50 ([13]; HepG2, 72 hr): 1 to 10 µM
1 to 10 | 10 to 100 | 10 to 100 | 10 to 100 | 1 to 10 | 1 to 10 | 10 to 100 | 10 to 100 | 10 to 100 | 10 to 100 |  | Nc1ccn([C@@H]2S[C@H](COP(=O)(O)NCc3ccccc3)[C@@H](O)[C@@H]2O)c(=O)n1 [Compound 107, [(2R,3S,4S,5R)-5-(4-amino-2-oxo-pyrimidin-1-yl)-3,4-dihydroxy-tetrahydrothiophen-2-yl]methoxy-N-benzyl-phosphonamidic acid] | 10 to 100 | 10 to 100 | IC50 ([13]; Homo sapiens, HepG2, 72 h): 1 to 10 µM
 |  |  |  |  |  |  |  |  |  | 10 to 20 | Nc1ccn([C@@H]2S[C@H](COP(=O)(NCc3ccccc3)OCc3ccc([N+](=O)[O-])o3)[C@@H](O)[C@@H]2O)c(=O)n1 (single isomer, unassigned) [drawing 52] |  |  | Emax ([1]; Homo sapiens, 48 h): 0 to 10%
10 to 100 | 10 to 100 | 10 to 100 | 10 to 100 | 10 to 100 | 10 to 100 | 10 to 100 | 10 to 100 | 10 to 100 | 10 to 100 |  | CC(=O)OC[C@H](C)NP1(=O)OC[C@H]2S[C@@H](n3ccc(N)nc3=O)[C@@H](O)[C@@H]2O1 (single isomer, unassigned) [Compound 108b (diastereoisomer 1)] | 10 to 100 | 10 to 100 | IC50 ([13]; Homo sapiens, HepG2, 72 h): 10 to 100 µM
 |  |  |  |  |  |  |  |  |  | ≥ 20 | CC(C)(C)SSCCOP(=O)(NCc1ccccc1)OC[C@H]1S[C@@H](n2ccc(N)nc2=O)[C@@H](O)[C@@H]1O (single isomer, unassigned) [drawing 58] |  |  | Emax (%) [1]: C (C>20%)
 | 1 to 10 |  |  |  |  |  |  |  |  |  | Nc1ccn([C@@H]2S[C@H](COP(=O)(NCc3ccccc3)OCc3ccc([N+](=O)[O-])o3)[C@@H](O)[C@@H]2O)c(=O)n1 (single isomer, unassigned) [Compound 103 (diastereoisomer 2)] |  |  | IC50 ([2]; HL-60, 72 hr): < 1 µM; IC50 ([4]; CFPAC-1, 72 hr): 1 to 10 µM; IC50 ([5]; BxPC-3, 72 hr): 1 to 10 µM; IC50 ([6]; NCI-H69, 72 hr): 1 to 10 µM; IC50 ([7]; A498, 72 hr): 1 to 10 µM; IC50 [8]: < 1 µM; IC50 ([9]; MiaPACA-2, 72 hr): 1 to 10 µM; IC50 ([10]; HCT-116, 72 hr): 1 to 10 µM; IC50 [11]: 10 to 100 µM; IC50 [12]: 1 to 10 µM; IC50 ([13]; HepG2, 72 hr): 1 to 10 µM; IC50 [14]: 10 to 100 µM
 |  |  |  |  |  |  |  |  |  | 1 to 10 | Nc1ccn([C@@H]2S[C@H](COP(=O)(NCc3ccccc3)OCc3ccc([N+](=O)[O-])o3)[C@@H](O)[C@@H]2O)c(=O)n1 (single isomer, unassigned) [drawing 53] |  |  | Emax (%) [1]: A (A=0-10%)
